Test results reported in PubChem BioAssay AID1259407 (Chemical Carcinogenesis Research Information System (CCRIS), 2018).
Activity calls are given as the source filed them. How the calls were made is not given here.

Test system: CCRIS mutagenicity, Ames/micronucleus/aberration tests
Experiment: CCRIS mutagenicity studies

Measured: mutagenic call

CCCCC(CC)COC(=O)c1ccccc1C(=O)OCC(CC)CCCC (stereo not drawn)
inactive: End Point: IN VITRO MICRONUCLEUS, Test System: V79 CELLS, Metabolic Activation: NONE inactive; negative | End Point: IN VITRO MICRONUCLEUS, Test System: V79 CELLS, Metabolic Activation: RAT, LIVER, S-9, AROCLOR 1254 inactive; negative | End Point: IN VIVO MICRONUCLEUS, Test System: HEPATOCYTES, Species: RAT, Strain/Sex: FISHER 344 OR SD/MALE, Route: ORAL OR IP inactive; negative | End Point: IN VIVO MICRONUCLEUS, Test System: PERIPHERAL BLOOD RETICULOCYTES, Species: RAT, Strain/Sex: FISHER 344 OR SD/MALE, Route: ORAL OR IP inactive; negative | Test System: AMES SALMONELLA TYPHIMURIUM, Strain/Indicator: TA97, Metabolic Activation: HAMSTER LIVER S-9, AROCLOR 1254 (10 OR 30%), Method: PREINCUBATION inactive; negative | Test System: AMES SALMONELLA TYPHIMURIUM, Strain/Indicator: TA97, Metabolic Activation: NONE, Method: PREINCUBATION inactive; negative | Test System: AMES SALMONELLA TYPHIMURIUM, Strain/Indicator: TA97, Metabolic Activation: NONE, Method: STANDARD PLATE inactive; negative | Test System: AMES SALMONELLA TYPHIMURIUM, Strain/Indicator: TA97, Metabolic Activation: RAT LIVER S-9, AROCLOR 1254 (10 OR 30%), Method: PREINCUBATION inactive; negative | Test System: AMES SALMONELLA TYPHIMURIUM, Strain/Indicator: TA97, Metabolic Activation: S-9, Method: STANDARD PLATE inactive; negative | Test System: AMES SALMONELLA TYPHIMURIUM, Strain/Indicator: TA98, Metabolic Activation: HAMSTER LIVER S-9, AROCLOR 1254 (10 OR 30%), Method: PREINCUBATION inactive; negative | Test System: AMES SALMONELLA TYPHIMURIUM, Strain/Indicator: TA98, Metabolic Activation: HAMSTER, LIVER, S-9, AROCLOR 1254 (10%), Method: PREINCUBATION inactive; negative | Test System: AMES SALMONELLA TYPHIMURIUM, Strain/Indicator: TA98, Metabolic Activation: NONE, Method: FLUCTUATION (MICROTITER) inactive; negative | Test System: AMES SALMONELLA TYPHIMURIUM, Strain/Indicator: TA98, Metabolic Activation: NONE, Method: STANDARD PLATE inactive; negative | Test System: AMES SALMONELLA TYPHIMURIUM, Strain/Indicator: TA98, Metabolic Activation: RAT LIVER S-9, AROCLOR 1254 (10 OR 30%), Method: PREINCUBATION inactive; negative | Test System: AMES SALMONELLA TYPHIMURIUM, Strain/Indicator: TA98, Metabolic Activation: RAT LIVER S-9, AROCLOR 1254, Method: FLUCTUATION (MICROTITER) inactive; negative | Test System: AMES SALMONELLA TYPHIMURIUM, Strain/Indicator: TA98, Metabolic Activation: RAT LIVER S-9, PHENOBARBITAL AND BETA-NAPHTHOFLAVONE, Method: PREINCUBATION inactive; negative | Test System: AMES SALMONELLA TYPHIMURIUM, Strain/Indicator: TA98, Metabolic Activation: RAT, LIVER, S-9, AROCLOR 1254 (10%), Method: PREINCUBATION inactive; negative | Test System: AMES SALMONELLA TYPHIMURIUM, Strain/Indicator: TA98, Metabolic Activation: RAT, LIVER, S-9, AROCLOR 1254, Method: STANDARD PLATE inactive; negative | Test System: AMES SALMONELLA TYPHIMURIUM, Strain/Indicator: TA98, Metabolic Activation: S-9, Method: STANDARD PLATE inactive; negative | Test System: AMES SALMONELLA TYPHIMURIUM, Strain/Indicator: TA100, Metabolic Activation: HAMSTER LIVER S-9, AROCLOR 1254 (10 OR 30%), Method: PREINCUBATION inactive; negative | Test System: AMES SALMONELLA TYPHIMURIUM, Strain/Indicator: TA100, Metabolic Activation: HAMSTER, LIVER, S-9, AROCLOR 1254 (10%), Method: PREINCUBATION inactive; negative | Test System: AMES SALMONELLA TYPHIMURIUM, Strain/Indicator: TA100, Metabolic Activation: NONE, Method: STANDARD PLATE inactive; negative | Test System: AMES SALMONELLA TYPHIMURIUM, Strain/Indicator: TA100, Metabolic Activation: RAT LIVER S-9, AROCLOR 1254 (10 OR 30%), Method: PREINCUBATION inactive; negative | Test System: AMES SALMONELLA TYPHIMURIUM, Strain/Indicator: TA100, Metabolic Activation: RAT LIVER S-9, PHENOBARBITAL AND BETA-NAPHTHOFLAVONE, Method: PREINCUBATION inactive; negative | Test System: AMES SALMONELLA TYPHIMURIUM, Strain/Indicator: TA100, Metabolic Activation: RAT, LIVER, S-9, AROCLOR 1254 (10%), Method: PREINCUBATION inactive; negative | Test System: AMES SALMONELLA TYPHIMURIUM, Strain/Indicator: TA100, Metabolic Activation: RAT, LIVER, S-9, AROCLOR 1254, Method: STANDARD PLATE inactive; negative | Test System: AMES SALMONELLA TYPHIMURIUM, Strain/Indicator: TA100, Metabolic Activation: S-9, Method: STANDARD PLATE inactive; negative | Test System: AMES SALMONELLA TYPHIMURIUM, Strain/Indicator: TA102, Metabolic Activation: CO631 CELLS, Method: STANDARD PLATE inactive; negative | Test System: AMES SALMONELLA TYPHIMURIUM, Strain/Indicator: TA102, Metabolic Activation: NONE, Method: STANDARD PLATE inactive; negative | Test System: AMES SALMONELLA TYPHIMURIUM, Strain/Indicator: TA102, Metabolic Activation: PANCREATIN, Method: STANDARD PLATE inactive; negative | Test System: AMES SALMONELLA TYPHIMURIUM, Strain/Indicator: TA102, Metabolic Activation: PORCINE, PANCREAS, LIPASES, Method: STANDARD PLATE inactive; negative | Test System: AMES SALMONELLA TYPHIMURIUM, Strain/Indicator: TA102, Metabolic Activation: RAT HEPATOCYTES, Method: STANDARD PLATE inactive; negative | Test System: AMES SALMONELLA TYPHIMURIUM, Strain/Indicator: TA102, Metabolic Activation: RAT LIVER S-9, PHENOBARBITAL AND 5,6-BENZOFLAVONE, Method: STANDARD PLATE inactive; negative | Test System: AMES SALMONELLA TYPHIMURIUM, Strain/Indicator: TA102, Metabolic Activation: S-9, Method: STANDARD PLATE inactive; negative | Test System: AMES SALMONELLA TYPHIMURIUM, Strain/Indicator: TA1535, Metabolic Activation: HAMSTER LIVER S-9, AROCLOR 1254 (10 OR 30%), Method: PREINCUBATION inactive; negative | Test System: AMES SALMONELLA TYPHIMURIUM, Strain/Indicator: TA1535, Metabolic Activation: HAMSTER, LIVER, S-9, AROCLOR 1254 (10%), Method: PREINCUBATION inactive; negative | Test System: AMES SALMONELLA TYPHIMURIUM, Strain/Indicator: TA1535, Metabolic Activation: NONE, Method: STANDARD PLATE inactive; negative | Test System: AMES SALMONELLA TYPHIMURIUM, Strain/Indicator: TA1535, Metabolic Activation: RAT LIVER S-9, AROCLOR 1254 (10 OR 30%), Method: PREINCUBATION inactive; negative
